Like-named read-outs stand apart in the source and are kept apart here.
Tests used:
[1] = In vivo antitumor assay, P388 leukemia (IP); parameters: species or system mice; conditions: mouse, in vivo, P388(IP) 10^6 cells, drug IP, read-out: Maximum Tolerated Total Dose
From the text: (§1) In vivo Antitumor Assay Procedure
(§2) Mice: Inbred: C3H/He; and Hybrids: B6D2F1 (C57BL/6 females×DBA/2 males), CD2F1 (Balb/c females×DBA/2 males) and B6C3F1 (C57BL/6×C3H) were bred at Wayne State University from strains obtained from the Frederick Cancer Research Facility, Frederick, Md. or from commercial suppliers.
(§3) Tumors: Murine Tumors: P388 leukemia and the following transplantable solid tumors of mice were used for in vivo testing: B16 melanoma, pancreatic ductal adenocarcinoma No. 03, colon adenocarcinoma No. 38 and mammary ductal adenocarcinoma No. 16/C. All tumors are in the Developmental Therapeutics Program frozen tumor repository, maintained by the Biological Testing Branch, Frederick, Md. Each has a detailed description, code identification number, and list of references at the National Tumor Repository. Tumors were maintained in the mouse strain of origin and were transplanted in the appropriate F1 hybrid (or the strain of origin) for therapy trials. The mice were supplied food and water ad libitum.
(§4) For P388 leukemia and B16 melanoma studies the tumor cells were implanted IP on day zero and treatment was started on day one (also IP). Titered controls were also included to facilitate the calculation of tumor cell kill.
(§5) End Points for Assessing Antitumor Activity: Quantitative end points used to assess antitumor activity included % Increased Life Span (% ILS), Tumor Cell Kill (Log10 kill), and Tumor Growth Inhibition (T/C). Long Term Survivors (45 or 60 day) were excluded from calculations of % ILS and Tumor Cell Kill.
(§6) Endpoints were calculated as follows: [formula] where Dt is the median day of death for treated and Dc is the median day of death for control groups.
(§7) The log10 cell kill was calculated from the following formula: [formula] where T-C is the tumor difference in the median day of death between the treated (T) and the control (C) groups and Td is the tumor doubling time (in days), the latter estimated from the best fit straight line from a log-linear growth plot of the control-group tumors in exponential growth. The conversion of the T-C values to log10 cell kill is possible because the Td for tumors regrowing post-treatment approximated the Td values of the tumors in untreated control mice.

[2] = system: P388 leukemia; assay: In vivo antitumor assay, P388 leukemia (IP); parameters: species or system mice; conditions: for % ILS / Long Term Survivors: P388(IP) 10^6 cells, drug IP
From the text: as §1, §2, §3, §4, §5, §6, §7

[3] = system: several tumor systems; assay: Antitumor activity in mice against several tumor systems (overall statement); type: in vivo
From the text: as §1, §2
as §3, with “libitum. […]” for “libitum.”
End Points for Assessing Antitumor Activity: Quantitative end points used to assess antitumor activity included % Increased Life Span (% ILS), Tumor Cell Kill (Log10 kill), and Tumor Growth Inhibition (T/C). […]

Structure (SMILES): Cc1cc(-c2c(F)cc3c(=O)c(C(=O)O)cn4c3c2SC[C@@H]4C)cc(C)n1 [Example 5, (S)-10-(2,6-Dimethyl-4-pyridinyl)-9-fluoro-3-methyl-7-oxo-2,3-dihydro-7H-pyrido[1,2,3-de][1,4]benzothiazine-6-carboxylic acid]
- MTD ([1]; QD1,5,9, vehicle 5% EtOH, 1% NaHCO3, 0.3% tween40 (pH 8.3)): 1010 mg/kg
- MTD ([1]; QD1-7, vehicle 3% EtOH, 3% NaHCO3, 1% tween40): 504 mg/kg
- % ILS ([2]; QD1,5,9, 1014 mg/kg total): 90%
- Long Term Survivors ([2]; QD1,5,9, 1014 mg/kg total): 0/6
- % ILS ([2]; QD1-7, 504 mg/kg total): 92%
- Long Term Survivors ([2]; QD1-7, 504 mg/kg total): 0/5
- antitumor activity (in words) ([2]; P388, 90% ILS): excellent activity
- log10 tumor cell kill ([2]; P388, equal to 90% ILS): 5.2-7.0 log10
- antineoplastic activity (in words) [3]: found to possess antineoplastic activity as evidenced by its activity in reducing the size of and curing tumors, and increasing the survival time of the mice
